According to a melting point compilation (Tetko et al.; mined from patent text by program, amines drawn as free bases though some values may be those of a salt):

Row | melting point [°C] | Structure (SMILES)
1 | 245 | CS(=O)(=O)c1ccc(-c2oc(C(=O)O)cc(=O)c2Oc2ccc(F)cc2F)cc1
2 | 217 to 218 | CCn1nc2c(N)nc3ccccc3c2c1C
3 | 91 to 92 | Fc1cccc(CCc2nnc(-c3ccnc(NCCCc4ccccc4)c3)o2)c1
4 | 145 to 147 | Oc1ccc(C2COC(c3c(F)cccc3F)=N2)cc1 (configuration not stated)
5 | 173 to 175 | Cc1sc(Cc2ccccc2)c(-c2ccc(-c3ccc(OS(=O)(=O)c4ccc(C(=O)O)c(O)c4)cc3)cc2)c1C
6 | 164 to 167 | c1cc(Nc2nccc3ccccc23)cc(-n2ccnc2)c1
7 | 286 to 290 | O=c1[nH]c(=O)n2c(c1-c1ccccc1)SC=CC2
8 | 189 to 191 | Cc1cnc(CNC(=O)c2sc(-n3cnn(Cc4ccc(F)cc4)c3=O)cc2C)cn1
9 | 91 to 94 | Cn1c(C(F)(F)F)cc(=O)n(-c2cc(OCSc3ccccc3)c(Cl)cc2F)c1=O
10 | 125 to 128 | Cn1cc(C2=C(c3cn(CCCNS(=O)(=O)c4ccccc4)c4ccccc34)C(=O)NC2=O)c2ccccc21
11 | 230 to 234 | Cc1oc(=O)c(Nc2ccc([N+](=O)[O-])cc2)nc1Cl
12 | 155 to 156 | CCOC(=O)c1c(-c2ccc(Cl)c(Cl)c2)csc1N1C(=O)c2ccccc2C1=O
13 | 102 | CCCc1cc(-c2[nH]c3ccccc3c2C)cc(CCC)c1O

More lines, now with the values behind:

Row | Structure (SMILES) | melting point [°C]
14 | O=C1Nc2cccc(-c3cncnc3)c2C12COc1cc3c(cc12)OCO3 (configuration not stated) | 185 to 187
15 | COc1cc2c3ccc(OC)c(OC)c3n(Cc3ccc(Br)cc3)c2cc1OC | 143 to 144
16 | CCc1cc2ccccc2c(CNC(=O)c2cc(OC)c(OC)c(OC)c2)n1 | 175 to 176
17 | COc1c(Br)ccc2oc(CNc3ccc(-c4ccc(S(=O)(=O)NC(C(=O)O)C(C)C)cc4)cc3)c(C)c12 (configuration not stated) | 194 to 198
18 | CCCN(CCC)CCOc1ccc(Cn2c(-c3ccc(O)cc3)c(C)c3cc(O)ccc32)cc1 | 83 to 86
19 | COC(=N[N+](=O)[O-])NCc1cnc(Cl)s1 | 133 to 135
20 | CC(=O)OC(C)c1nc2c(C(F)(F)F)cccc2c(O)c1C(=O)Nc1nccs1 (configuration not stated) | 262
21 | NCCc1ccc(C=Cc2ccccc2)cc1 | 141 to 156
22 | CC(=O)OCCCCCC1CC2=CC(=O)CCC2C2C(F)CC3(C)C(=O)CCC3C12 (configuration not stated) | 78.4
23 | CC1(C(=O)NC(CCC(=O)O)Cc2ccccc2)Cc2c([nH]c3ccccc23)CN1C(=O)OC1C2CC3CC(C2)CC1C3 (configuration not stated) | 133 to 138
24 | CS(=O)(=O)N(CCCl)N(S(C)(=O)=O)S(C)(=O)=O | 154 to 155
25 | CCCCCCCCOC(=O)C(=C1SCCCS1)c1cccc(C(F)(F)F)c1 | 49
26 | CNC(=C[N+](=O)[O-])NCCCCCCCCCCCCN | 123 to 125
27 | CC(C)C(O)C(O)C(O)C(CC1CCCCC1)NC(=O)OC(C)(C)C (configuration not stated) | 151 to 152
28 | CC1(C)Oc2ccc(C#N)cc2[C@@H](Nc2cc(Cl)ncn2)[C@@H]1O (relative stereo) | 204 to 208
29 | COC(=O)C(Oc1ccc(Cl)cc1)c1ccc(Oc2ccc(Cl)cc2)cc1 (configuration not stated) | 100 to 102
30 | CC(C)c1cc(CCC(=O)O)cc(C(C)C)c1O | 106
31 | Cc1c(NC(=O)c2ccc(-c3ccc(F)cc3)cc2F)ccc2cc(CN3CCCCC3)cnc12 | 186 to 187
32 | COC(=O)C(C)(N)Cc1c[nH]c2ccc(Br)cc12 (racemic) | 181
33 | CCCc1c(OCCCS(=O)(=O)c2ccc(CC(=O)OC)cn2)ccc(C(C)=O)c1O | 124 to 126
34 | CC1OC(O)CC(O)C1O (configuration not stated) | 102 to 105
35 | CN(C)c1ccc(NC(=O)N(CC2CCCCC2)C[C@H]2CC[C@H](CN(CC3CCCCC3)C(=O)Nc3ccc(N(C)C)cc3)CC2)cc1 | 210 to 212
36 | Cn1c(=O)cc(CCc2ccc(Cl)s2)c2cc(C(O)(c3ccc(Cl)cc3)c3cccnc3)ccc21 (configuration not stated) | 110
37 | COC(=O)C(=O)c1ccc(OCCOc2ccc(C)cc2)cc1 | 105 to 107
